According to paper PMC11613273, “High-Affinity Peptides for Target Protein Screened in Ultralarge Virtual Libraries” (ACS Central Science, 2024):
Where no end group is shown, it is not given here.

Experiments:
[1] = target: SARS-CoV-2 RBD (Severe acute respiratory syndrome coronavirus 2, UniProt P0DTC2); type: binding; settings: maximum steady-state BLI response signal from fit
[2] = target: T1, AFP (Homo sapiens, UniProt P02771); assay: BLI analysis, steady-state; type: binding; settings: for Kd: BLI Octet Red96, biotinylated target on SSA sensors, peptide 3.125 to 200 nM, 25°C, kinetics buffer (10 mM PBS, 0.1% BSA, 0.05% Tween-20), steady-state fit, 1:1 model; for Rmax: maximum steady-state BLI response signal from fit
T1 construct: purchased Sino Biological Co., LTD; (Beijing)
T1 sequence (P02771 19-609): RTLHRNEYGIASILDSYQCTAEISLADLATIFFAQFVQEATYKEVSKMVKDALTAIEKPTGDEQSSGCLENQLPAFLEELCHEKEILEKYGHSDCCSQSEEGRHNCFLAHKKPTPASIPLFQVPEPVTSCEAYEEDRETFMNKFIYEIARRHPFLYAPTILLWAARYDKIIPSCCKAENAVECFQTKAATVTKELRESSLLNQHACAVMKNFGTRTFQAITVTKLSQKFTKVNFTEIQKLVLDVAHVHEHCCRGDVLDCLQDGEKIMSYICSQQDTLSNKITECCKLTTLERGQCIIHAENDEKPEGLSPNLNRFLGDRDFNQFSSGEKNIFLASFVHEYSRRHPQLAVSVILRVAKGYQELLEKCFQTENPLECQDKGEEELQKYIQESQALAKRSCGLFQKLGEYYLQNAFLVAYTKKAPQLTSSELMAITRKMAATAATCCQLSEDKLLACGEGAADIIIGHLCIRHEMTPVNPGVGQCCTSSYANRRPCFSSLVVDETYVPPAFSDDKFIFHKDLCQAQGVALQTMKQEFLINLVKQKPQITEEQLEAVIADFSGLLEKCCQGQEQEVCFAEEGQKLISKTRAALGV

[3] = target: Noro P-domain (Norovirus Hu/GII.4/Sydney/NSW0514/2012/AU, UniProt K4LM89); assay: BLI analysis, steady-state; type: binding, Norovirus GII.4; settings: maximum steady-state BLI response signal from fit

Sequence | Rmax [1] [nm] | Kd [2] [nM] | Rmax [2] [nm] | Rmax [3] [nm]
CPPPFPGRPPPWPPF [Pep-1927] | 0.1296±0.0076 |  |  | 
CPPPAPQFPFPWPPW [Pep-2458] | 0.2149±0.0080 |  |  | 
WWWWWPHHDWKLVWC [Pep-7937] |  | 40.6 ± 7.31 | 0.0945±0.0061 | 
CPPPPPYYKPPGHPP [Pep-6626] | 0.1940±0.0063 |  |  | 
FPPPPWWDWPPPPWW [Pep-595] |  |  |  | 0.4957±0.0130
PIWWYHAEKPEHWPI [Pep-5890] |  | 74.8 ± 11 | 0.2242±0.0144 | 
WWALEHYPPPYMQIW [Pep-6973] |  | 69.3 ± 14.4 | 0.2449±0.0216 | 
FFGPPPWPPPPPPWY [Pep-3076] |  |  |  | 0.4267±0.0208
FPPPPPHPWPPPPWA [Pep-21] |  |  |  | 0.7092±0.0344
